In the supplement of paper PMC4314810:
± gives the standard deviation of the averaged measurements.

These sequences were tested on MCF7 (assay: HRG-induced Akt activation (dPAkt = log2 pAkt/Akt HRG-stimulated minus log2 pAkt/Akt basal) (log2 ratio difference); higher = stronger HRG-induced Akt(T308) phosphorylation). Details: miRNA mimic concentration 10 nM; time after transfection 72 h; heregulin 10 ng/ml; stimulation time 1 h.
Summary of the method: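 MCF7 cells ([…], 96-well plates) were transfected with a library of 879 miRNA mimics at 10 nM final using Lipofectamine RNAiMax, in two biological replicates. After 72 h, cells were stimulated with 10 ng/ml heregulin-beta1 for 1 h or left unstimulated. They were fixed with 4% PFA, and phospho-Akt(T308) and total Akt were read by In-Cell Western on an Odyssey. Signals were corrected for column-wise fixation decay, and HRG-induced Akt activation is log2(pAkt/Akt) stimulated minus unstimulated, averaged over replicates.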

Row | Sequence | HRG-induced Akt activation (log2)
1 | CCCCAGGGCGACGCGGCGGG | 2.057 ± 0.012
2 | GACUGACACCUCUUUGGGUGAA | 1.49 ± 0.18
3 | GUGAAUUACCGAAGGGCCAUAA | 1.03 ± 0.12
4 | UGAGUAUUACAUGGCCAAUCUC | 1.74 ± 0.27
5 | CUCUCACCACUGCCCUCCCACAG | 1.9 ± 0.13
6 | ACGGUGCUGGAUGUGGCCUUU | 1.92 ± 0.082
7 | UGGGUCUUUGCGGGCGAGAUGA | 1.89 ± 0.21
8 | CAAUGUUUCCACAGUGCAUCAC | 1.1 ± 0.42
9 | CGGCCCGGGCUGCUGCUGUUCCU | 1.09 ± 0.4
10 | UCACCAGCCCUGUGUUCCCUAG | 1.69 ± 0.061
11 | AAAAGUAAUUGCGGUUUUUGCC | 1.53 ± 0.17
12 | UAAAGUAAAUAUGCACCAAAA | 1.45 ± 0.18
13 | UUAAUAUCGGACAACCAUUGU | 1.72 ± 0.21
14 | GAUUAGGGUGCUUAGCUGUUAA | 1.67 ± 0.28
15 | ACUGAUUUCUUUUGGUGUUCAG | 1.47 ± 0.082
16 | UAAAUCCCAUGGUGCCUUCUCCU | 2.03 ± 0.12
17 | CUGAAGCUCAGAGGGCUCUGAU | 1.38 ± 0.13
18 | CUACAAAGGGAAGCACUUUCUC | 1.96 ± 0.15
19 | UCGACAGCACGACACUGCCUUC | 1.4 ± 0.42
20 | GUGAAAUGUUUAGGACCACUAG | 1.97 ± 0.049

Row | Sequence | HRG-induced Akt activation (log2)
21 | UAGUACCAGUACCUUGUGUUCA | 1.19 ± 0.3
22 | UGGCUCAGUUCAGCAGGAACAG | 0.611 ± 0.18
23 | UAAGGUGCAUCUAGUGCAGUUAG | 2.1 ± 0.024
24 | UUUGUGACCUGGUCCACUAACC | 1.16 ± 0.88
25 | UGCUUCCUUUCAGAGGGU | 1.61 ± 0.34
26 | UCCGGUUCUCAGGGCUCCACC | 1.83 ± 0.26
27 | UAACACUGUCUGGUAAAGAUGG | 0.763 ± 0.24
28 | UCUGCAGGGUUUGCUUUGAG | 1.07 ± 0.059
29 | CAAAGCGCUUCUCUUUAGAGUGU | 0.7 ± 0.83
30 | AGGGCCCCCCCUCAAUCCUGU | 1.95 ± 0.39
31 | UGGUGGGCCGCAGAACAUGUGC | 1.74 ± 0.035
32 | UGCCCUAAAUGCCCCUUCUGGC | 1.36 ± 0.27
33 | ACUGCUGAGCUAGCACUUCCCG | 1.04 ± 0.26
34 | UAACACUGUCUGGUAACGAUGU | 1.04 ± 0.078
35 | UCACUGUUCAGACAGGCGGA | 2.02 ± 0.07
36 | UGCGGGGCUAGGGCUAACAGCA | 2.49 ± 0.31
37 | CAUUAUUACUUUUGGUACGCG | 1.58 ± 0.02
38 | AACAUUCAUUGCUGUCGGUGGGU | 1.77 ± 0.45
39 | UCUUGGAGUAGGUCAUUGGGUGG | 1.56 ± 0.046
40 | UGAGAACCACGUCUGCUCUGAG | 2.16 ± 0.27

Row | Sequence | HRG-induced Akt activation (log2)
41 | AGAAUUGUGGCUGGACAUCUGU | 1.55 ± 0.022
42 | AAGCAGCUGCCUCUGAGGC | 2.16 ± 0.21
43 | CAAGCUCGCUUCUAUGGGUCUG | 1.18 ± 0.12
44 | UGAGGCAGUAGAUUGAAU | 1.49 ± 0.26
45 | AGAGGCUGGCCGUGAUGAAUUC | 1.48 ± 0.024
46 | UCCCACGUUGUGGCCCAGCAG | 1.44 ± 0.14
47 | UGGAUUUUUGGAUCAGGGA | 2.21 ± 0.15
48 | UGGAGAGAAAGGCAGUUCCUGA | 0.965 ± 0.16
49 | CUCCGUUUGCCUGUUUCGCUG | 2.07 ± 0.2
50 | GUGGGUACGGCCCAGUGGGGGG | 1.24 ± 0.18
51 | UGUGACAGAUUGAUAACUGAAA | 1.84 ± 0.056
52 | AGGGGCUGGCUUUCCUCUGGUC | 1.57 ± 0.17
53 | UCUGCCCCCUCCGCUGCUGCCA | 1.55 ± 0.069
54 | UUGCAUAUGUAGGAUGUCCCAU | 1.32 ± 0.079
55 | AGUAUGUUCUUCCAGGACAGAAC | 1.83 ± 0.087
56 | UCACACCUGCCUCGCCCCCC | 1.05 ± 0.31
57 | UCUCUGGGCCUGUGUCUUAGGC | 1.55 ± 0.3
58 | CAAAGUGCCUCCCUUUAGAGUG | 0.831 ± 0.84
59 | AGGUUACCCGAGCAACUUUGCAU | 0.732 ± 0.16
